These results are taken from patent US9522133B2, “Substituted 1,2,3,4-tetrahydrocyclopenta[b]indol-3-yl)acetic acid derivatives useful in the treatment of autoimmune and inflammatory disorders” (Arena Pharmaceuticals, Inc., priority 2008, dated 2016).

In one data set the target is T1, S1P1 receptor (Homo sapiens, UniProt P21453).
T1 construct: expressed in transfected cells; host or cells: CHO-K1 (ATCC CCL-61), stably transfected
Description: HTRF assay for direct cAMP measurement (S1P1 agonism). It counts as cell-based. The note with it: recombinant CHO-K1 cells stably transfected with S1P1 receptors; decrease of cAMP. The text has this:
Compounds were screened for agonists of the S1P1 receptor (e.g., human S1P1 receptor) using the HTRF® assay for direct cAMP measurement (Gabriel et al., Assay and Drug Development Technologies, 1:291-303, 2003) and recombinant CHO-K1 cells stably transfected with S1P1 receptors. CHO-K1 cells were obtained from ATCC® (Manassas, Va.; Catalog # CCL-61). An agonist of the S1P1 receptor was detected in the HTRF® assay for direct cAMP measurement as a compound which decreased cAMP concentration. HTRF® assay also was used to determine EC50 values for S1P1 receptor agonists.
HTRF® assay kit was purchased from Cisbio-US, Inc. (Bedford, Mass.; Catalog #62AM4PEC). The HTRF® assay supported by the kit is a competitive immunoassay between endogenous cAMP produced by the CHO-K1 cells and tracer cAMP labeled with the dye d2. The tracer binding is visualized by a monoclonal anti-cAMP antibody labeled with Cryptate. The specific signal (i.e., fluorescence resonance energy transfer, FRET) is inversely proportional to the concentration of unlabeled cAMP in the standard or sample.
The fluorescence ratio (665 nm/620 nm) of the standards (0.17 to 712 nM cAMP) included in the assay was calculated and used to generate a cAMP standard curve according to the kit manufacturer's instructions. The fluorescence ratio of the samples (test compound or compound buffer) was calculated and used to deduce respective cAMP concentrations by reference to the cAMP standard curve.
The HTRF® assay was carried out using a two-step protocol essentially according to the kit manufacturer's instructions, in 20 μL total volume per well in 384-well plate format (ProxiPlates; PerkinElmer, Fremont, Calif.; catalog #6008280). […] The plate was then further incubated at room temperature for 1 hour, after which the assay plate was read.
HTRF® readout was accomplished using a PHERAstar (BMG LABTECH Inc., Durham, N.C.) or EnVision™ (PerkinElmer, Fremont Calif.) microplate reader.

Data set [1] has as its system peripheral blood lymphocyte (PBL) count. Description: Mouse peripheral lymphocyte lowering (PLL) assay. It counts as in vivo. The settings on record: male BALB/c mice, oral dose, 5 hours post-dose, vs vehicle; FIGS. 1 and 2. How it is done: Male BALB/c mice (Charles River Laboratories, Wilmington, Mass.) were housed four per cage and maintained in a humidity-controlled (40 to 60%) and temperature-controlled (68 to 72° F.) facility on a 12 h:12 h light/dark cycle (lights on at 6:30 am) with free access to food (Harlan Teklad, Orange, Calif., Rodent Diet 8604) and water. Mice were allowed one week of habituation to the animal facility before testing.
(§1) Mice were given an oral dose of Compound 5, Compound 7 or dosing vehicle (0.5% methylcellulose) in a total volume of 10 mL/kg. Peripheral blood samples were collected at 5 hours post-dose. The mice were anesthetized with isoflurane and blood was collected via cardiac puncture. A complete cell count (CBC), including lymphocyte count, was obtained using a CELL-DYN® 3700 (Abbott Laboratories, Abbott Park, Ill.) instrument. Results are presented in FIGS. 1 and 2, in which peripheral blood lymphocyte (PBL) count is shown for the 5 hour group.
as §1, with “given a 1.00 mg/kg” for “given an”, “of the 2nd enantiomer of compound 12 (isolated after resolution of compound 12 by HPLC, with a retention time of 13.9 min per the conditions reported in Example 1.29)” for “of Compound 5, Compound 7”, “(0.5% methylcellulose in sterile water)” for “(0.5% methylcellulose)”, “in FIG. 7,” for “in FIGS. 1 and 2,”

In the next data set the target is S1P3 receptor (Homo sapiens, UniProt Q99500). The settings on record: attributed to agonism of the S1P3 receptor; cited from earlier work.
In data set [2] the test system is experimental autoimmune myasthenia gravis (EAMG). The note with it: prophylactic oral administration, 1 mg/kg, three times a week, C57BL/6 mice; cited from earlier work.

T1 sequence (P21453 whole entry): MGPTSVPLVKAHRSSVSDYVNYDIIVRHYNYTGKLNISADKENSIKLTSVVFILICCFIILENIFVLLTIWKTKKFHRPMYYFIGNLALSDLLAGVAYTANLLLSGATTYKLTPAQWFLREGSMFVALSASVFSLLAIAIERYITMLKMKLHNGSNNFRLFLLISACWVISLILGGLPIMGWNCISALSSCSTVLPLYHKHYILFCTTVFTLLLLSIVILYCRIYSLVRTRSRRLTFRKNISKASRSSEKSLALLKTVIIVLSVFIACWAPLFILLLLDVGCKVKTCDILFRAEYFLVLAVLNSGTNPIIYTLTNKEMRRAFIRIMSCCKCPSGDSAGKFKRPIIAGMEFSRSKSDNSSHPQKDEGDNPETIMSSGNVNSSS
S1P3 receptor, sequence (Q99500 whole entry): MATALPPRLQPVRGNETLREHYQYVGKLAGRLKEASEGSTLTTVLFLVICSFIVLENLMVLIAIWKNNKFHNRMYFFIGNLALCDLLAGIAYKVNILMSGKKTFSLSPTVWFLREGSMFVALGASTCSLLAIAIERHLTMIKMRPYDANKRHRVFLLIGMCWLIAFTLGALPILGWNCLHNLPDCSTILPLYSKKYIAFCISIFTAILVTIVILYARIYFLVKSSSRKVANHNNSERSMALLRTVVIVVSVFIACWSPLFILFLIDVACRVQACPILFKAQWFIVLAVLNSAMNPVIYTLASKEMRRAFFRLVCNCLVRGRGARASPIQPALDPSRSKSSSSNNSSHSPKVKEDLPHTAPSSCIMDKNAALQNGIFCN

With `O=C(O)CC1CCc2c1[nH]c1ccc(OCc3cc(C(F)(F)F)cc(C(F)(F)F)c3)cc21` (stereo not shown) [Compound 10, 2-(7-(3,5-bis(trifluoromethyl)benzyloxy)-1,2,3,4-tetrahydrocyclopenta[b]indol-3-yl)acetic acid], on S1P1 receptor, the EC50 came out at 26 nM.
Same read-out and setting: the figure for `N#Cc1cc(COc2ccc3[nH]c4c(c3c2)CCC4CC(=O)O)cc(OC(F)(F)F)c1` (stereo not shown) [Compound 4, 2-(7-(3-cyano-5-(trifluoromethoxy)benzyloxy)-1,2,3,4-tetrahydrocyclopenta[b]indol-3-yl)acetic acid] is 16 nM.
As to `CC(C)Oc1ccc(COc2ccc3[nH]c4c(c3c2)CCC4CC(=O)O)cc1C#N` (stereo not shown) [Compound 5, 2-(7-(3-cyano-4-issopropoxybenzyloxy)-1,2,3,4-tetrahydrocyclopenta[b]indol-3-yl)acetic acid], the “activity for inducing PBL lowering (lymphopenia)” value in data set [1] is “exhibited activity for inducing PBL lowering (lymphopenia)”.
For the compound `O=C(O)CC1CCc2c1[nH]c1ccc(OCc3ccc(C(F)(F)F)cc3C(F)(F)F)cc21` (stereo not shown) [Compound 8, 2-(7-(2,4-bis(trifluoromethyl)benzyloxy)-1,2,3,4-tetrahydrocyclopenta[b]indol-3-yl)acetic acid], the EC50 at S1P1 receptor was determined as 9 nM.
As to `CCCCCCCCc1ccc(CCC(N)(CO)CO)cc1` [FTY720], the “adverse event in clinical trials” value at S1P3 receptor is recorded as “transient asymptomatic bradycardia”. Also, in data set [2], the “development of EAMG” value is recorded as “completely prevented”.
For the compound `N#Cc1cc(COc2ccc3[nH]c4c(c3c2)CCC4CC(=O)O)ccc1OC(F)(F)F` (stereo not shown) [Compound 7, 2-(7-(3-cyano-4-(trifluoromethoxy)benzyloxy)-1,2,3,4-tetrahydrocyclopenta[b]indol-3-yl)acetic acid], the “activity for inducing PBL lowering (lymphopenia)” value in data set [1] was “exhibited activity for inducing PBL lowering (lymphopenia)”.
